The structures appear in SMILES notation. Where two headings read alike, the source gives them in different places.

In assay [1] the target is human Smoothened receptor (Homo sapiens, UniProt Q99835). In words: Smo binding assay, displacement of radio-labeled smoothened agonist, filter binding format (human). The note with it: displacement of small molecule agonist of Smoothened, read-out: Human Smo bdg., IC50. The text has this: A Smo binding assay was developed using radio-labeled smoothened agonist for compound competition. Table 9 lists the IC50 for displacement of a small molecule agonist of Smoothened determined in a filter binding format for the mouse and human Smoothened receptor.
Chain of human Smoothened receptor (Q99835 28-787): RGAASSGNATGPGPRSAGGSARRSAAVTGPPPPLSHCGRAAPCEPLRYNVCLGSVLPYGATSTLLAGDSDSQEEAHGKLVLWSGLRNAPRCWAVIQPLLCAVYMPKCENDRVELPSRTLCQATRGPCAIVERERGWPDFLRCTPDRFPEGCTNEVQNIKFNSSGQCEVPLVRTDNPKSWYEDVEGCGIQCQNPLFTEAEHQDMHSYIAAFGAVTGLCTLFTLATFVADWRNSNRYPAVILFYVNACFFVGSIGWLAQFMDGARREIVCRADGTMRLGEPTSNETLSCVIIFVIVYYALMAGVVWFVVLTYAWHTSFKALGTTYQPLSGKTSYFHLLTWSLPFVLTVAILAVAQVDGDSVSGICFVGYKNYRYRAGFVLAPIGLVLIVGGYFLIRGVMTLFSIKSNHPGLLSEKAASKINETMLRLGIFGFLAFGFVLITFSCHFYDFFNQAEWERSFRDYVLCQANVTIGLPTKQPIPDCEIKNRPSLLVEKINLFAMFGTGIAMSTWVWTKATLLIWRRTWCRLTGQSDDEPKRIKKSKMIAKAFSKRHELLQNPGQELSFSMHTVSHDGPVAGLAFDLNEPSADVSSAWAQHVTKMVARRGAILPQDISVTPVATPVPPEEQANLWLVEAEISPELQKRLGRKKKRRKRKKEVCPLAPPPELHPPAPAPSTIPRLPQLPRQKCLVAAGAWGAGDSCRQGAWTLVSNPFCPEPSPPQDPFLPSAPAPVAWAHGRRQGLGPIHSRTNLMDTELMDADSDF

Assay [2] concerns Gli-luciferase activity. The assay is described as follows: Reporter gene assay (RGA) in TMHh12 cells, antagonism of Gli-luciferase activity in the presence of a Smo agonist. The format is cell-based. The procedure:
Activity of the compounds was evaluated using a reporter gene assay (RGA) in TMHh12 cells.
For orientation: Reporter assays use an easily measured gene product as a stand-in for the process of interest.

Assay [3] deals with mouse Smoothened receptor (Mus musculus, UniProt P56726). In words: Smo binding assay, displacement of radio-labeled smoothened agonist, filter binding format (mouse). The note with it: displacement of small molecule agonist of Smoothened, read-out: Mouse Smo bdg., IC50. The text has this:
A Smo binding assay was developed using radio-labeled smoothened agonist for compound competition.

The mark [4] stands for this setting: 25 nM small molecule Smo agonist, read-out: RGA (25 nM Smo agonist) IC50.
Where [5] appears, read: read-out: RGA (1 nM Smo agonist) IC50, 1 nM small molecule Smo agonist.

Chain of mouse Smoothened receptor (P56726 33-793): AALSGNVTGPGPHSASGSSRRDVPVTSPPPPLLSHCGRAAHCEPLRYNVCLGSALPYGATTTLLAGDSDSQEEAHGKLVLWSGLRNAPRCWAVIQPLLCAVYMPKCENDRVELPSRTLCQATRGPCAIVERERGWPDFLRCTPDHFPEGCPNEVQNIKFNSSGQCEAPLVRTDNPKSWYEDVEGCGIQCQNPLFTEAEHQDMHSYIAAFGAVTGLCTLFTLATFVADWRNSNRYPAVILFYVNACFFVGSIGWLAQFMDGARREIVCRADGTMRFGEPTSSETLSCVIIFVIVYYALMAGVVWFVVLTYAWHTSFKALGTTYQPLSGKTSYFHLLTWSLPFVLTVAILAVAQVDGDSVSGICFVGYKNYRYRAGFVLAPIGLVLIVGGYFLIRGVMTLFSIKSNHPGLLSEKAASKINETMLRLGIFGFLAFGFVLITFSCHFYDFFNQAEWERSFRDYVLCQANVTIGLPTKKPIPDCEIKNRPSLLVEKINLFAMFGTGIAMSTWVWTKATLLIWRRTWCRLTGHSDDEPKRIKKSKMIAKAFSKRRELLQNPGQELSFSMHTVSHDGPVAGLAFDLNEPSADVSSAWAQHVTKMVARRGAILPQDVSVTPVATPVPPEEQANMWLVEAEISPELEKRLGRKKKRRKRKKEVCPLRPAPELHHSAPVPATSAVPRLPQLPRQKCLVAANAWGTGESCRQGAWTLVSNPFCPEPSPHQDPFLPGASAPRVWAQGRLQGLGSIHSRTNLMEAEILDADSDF

For `CN(CCO)C(=O)c1ccc(N2CCN(c3nnc(Cc4ccc(Cl)c(Cl)c4)c4ccccc34)CC2)nc1` [Example 201], the 50% inhibitory concentration (IC50) in assay [1] is < 100 nM; in assay [2] (setting [4]), 100 to 1000 nM; in assay [2] (setting [5]), < 100 nM; in assay [3] it was < 100 nM.
On to `N#Cc1ccc(N2CCN(c3nnc(Cc4ccc(Cl)c(Cl)c4)c4ccccc34)CC2)nc1` [Example 176], for which the IC50 in assay [1] is 100 to 1000 nM; in assay [2] (setting [4]), 1000 to 10000 nM; in assay [2] (setting [5]) it was 100 to 1000 nM; in assay [3] it was 100 to 1000 nM.
Take `c1ccc(Cc2nnc(N3CCC(c4c[nH]c5ccccc45)CC3)c3ccccc23)cc1` [Example 113]: the IC50 in assay [1] is 100 to 1000 nM; in assay [2] (setting [4]) it was 1000 to 10000 nM; in assay [2] (setting [5]) it was 100 to 1000 nM; in assay [3], 100 to 1000 nM.
In the case of `N#Cc1ccc(N2CCN(c3nnc(Cc4ccc(C(F)(F)F)cc4)c4ccccc34)CC2)nc1` [Example 63], the IC50 in assay [1] lay in the range of 100 to 1000 nM; in assay [2] (setting [4]) it was 1000 to 10000 nM; in assay [2] (setting [5]) it was 100 to 1000 nM; in assay [3], 100 to 1000 nM.
Regarding `CCOC(=O)c1ccc(N2CCN(c3nnc(Cc4ccccc4)c4ccccc34)CC2)nc1` [Example 54], the IC50 was < 100 nM in assay [1], 100 to 1000 nM in assay [2] (setting [4]), < 100 nM in assay [2] (setting [5]) and < 100 nM in assay [3].
As for `CC(O)(CN1CCC(O)CC1)c1cnc(N2CCN(c3nnc(Cc4ccccc4)c4ccccc34)CC2)cn1` (stereo not drawn) [Example 170, 1-{2-[4-(4-Benzyl-phthalazin-1-yl)-3,4,5,6-tetrahydro-2H-[1,2′]bipyrazinyl-5′-yl]-2-hydroxy-propyl}-piperidin-4-ol], the IC50 in assay [1] was 100 to 1000 nM; in assay [2] (setting [4]), 100 to 1000 nM; in assay [2] (setting [5]) it was < 100 nM; in assay [3], 100 to 1000 nM.
In the case of `Fc1cnc(N2CCN(c3nnc(Cc4ccccc4)c4ccccc34)CC2)c(F)c1` [Example 52], the IC50 is 100 to 1000 nM in assay [1], 1000 to 10000 nM in assay [2] (setting [4]), 100 to 1000 nM in assay [2] (setting [5]) and 100 to 1000 nM in assay [3].
Take `O=C(c1ccc(N2CCN(c3nnc(Cc4ccccc4)c4ccccc34)CC2)nc1)N1CC(O)C1` [Example 54z]: the IC50 in assay [1] was 100 to 1000 nM; in assay [2] (setting [4]) it was 100 to 1000 nM; in assay [2] (setting [5]), < 100 nM; in assay [3], 100 to 1000 nM.
In the case of `NCc1ccc(C2CCN(c3nnc(Cc4ccccc4)c4ccccc34)CC2)cc1` [Example 125, 4-[1-(4-Benzyl-phthalazine-1-yl)-piperidine-4-yl]-benzylamine], the IC50 in assay [1] was in the range of 1000 to 10000 nM; in assay [2] (setting [4]), 1000 to 10000 nM; in assay [2] (setting [5]), 100 to 1000 nM; in assay [3] it was 100 to 1000 nM.
Turning to `CC(C)(O)c1cnc(N2CCN(c3nnc(Cc4ccccc4)c4ccccc34)CC2)nc1` [Example 151], the IC50 in assay [1] is < 100 nM; in assay [2] (setting [4]), 100 to 1000 nM; in assay [2] (setting [5]), < 100 nM; in assay [3] it was < 100 nM.
On to `CC(C)n1cc2c(Cc3ccccc3)nnc(N3CCN(c4ccc(C(F)(F)F)cn4)CC3)c2c1` [Example 244, 1-benzyl-6-isopropyl-4-(4-(5-(trifluoromethyl)pyridin-2-yl)piperazin-1-yl)-6H-pyrrolo[3,4-d]pyridazine], for which the IC50 in assay [1] fell in the range of 100 to 1000 nM; in assay [2] (setting [4]), 1000 to 10000 nM; in assay [2] (setting [5]), 1000 to 10000 nM; in assay [3] it was 100 to 1000 nM.
In the case of `CC(=O)c1cnc(N2CCN(c3nnc(Cc4ccccc4)c4ccccc34)C[C@H]2C)cn1` [Example 157], the IC50 in assay [1], in assay [2] (setting [4]), in assay [2] (setting [5]) and in assay [3] was < 100 nM in each case.
Take `Cc1cc(Cc2ccccc2)nnc1N1CCN(c2ccc(C(F)(F)F)cn2)CC1` [Example 88]: the IC50 in assay [1] was 100 to 1000 nM; in assay [2] (setting [4]), 1000 to 10000 nM; in assay [2] (setting [5]) it was < 100 nM; in assay [3], 100 to 1000 nM.
Take `NC(=O)c1ccc(N2CCN(c3nnc(Cc4ccccc4)c4ccccc34)CC2)nc1` [Example 53]: the concentration for half-maximal inhibition (IC50) is 100 to 1000 nM in assay [1], 100 to 1000 nM in assay [2] (setting [4]), < 100 nM in assay [2] (setting [5]) and 100 to 1000 nM in assay [3].
Consider `OC(c1ccc(N2CCN(c3nnc(Cc4ccccc4)c4ccccc34)CC2)nc1)(C(F)(F)F)C(F)(F)F` [Example 110], for which the 50% inhibitory concentration (IC50) in assay [1], in assay [2] (setting [4]), in assay [2] (setting [5]) and in assay [3] was < 100 nM each time.
As for `N#Cc1ccc(N2CCN(c3nnc(Cc4ccc(Cl)cc4)c4ccccc34)CC2)nc1` [Example 59], the IC50 was < 100 nM in assay [1], 100 to 1000 nM in assay [2] (setting [4]), < 100 nM in assay [2] (setting [5]) and < 100 nM in assay [3].
For `CC(O)(CO)c1ccc(N2CCN(c3nnc(Cc4ccccc4)c4ccccc34)CC2)nc1` (stereo not drawn) [Example 167, 2-{6-[4-(4-Benzyl-phthalazin-1-yl)-piperazin-1-yl]-pyridin-3-yl}-propane-1,2-diol], the IC50 in assay [1] was < 100 nM; in assay [2] (setting [4]), 100 to 1000 nM; in assay [2] (setting [5]) it was < 100 nM; in assay [3], < 100 nM.
Take `C[C@H]1CN(c2ccc(C(C)(C)O)cn2)CCN1c1nnc(Cc2ccccc2)c2ccccc12` [Example 155]: the IC50 in assay [1], in assay [2] (setting [4]), in assay [2] (setting [5]) and in assay [3] was < 100 nM each time.
As for `Cc1cccc(Cc2nnc(N3CCN(c4ccc(C#N)cn4)CC3)c3ccccc23)c1` [Example 69], the IC50 in assay [1] is 100 to 1000 nM; in assay [2] (setting [4]), 1000 to 10000 nM; in assay [2] (setting [5]) it was < 100 nM; in assay [3], 100 to 1000 nM.
On to `c1ccc(Cc2nnc(N3CCN(c4ccc(CN(C5COC5)C5COC5)cn4)CC3)c3ccccc23)cc1` [Example 231], for which the IC50 in assay [1], in assay [2] (setting [4]), in assay [2] (setting [5]) and in assay [3] was < 100 nM in each case.
Regarding `N#Cc1ccc(Cc2nnc(N3CCN(c4ccc(C#N)cn4)CC3)c3ccccc23)cc1` [Example 57], the IC50 in assay [1] is < 100 nM; in assay [2] (setting [4]), 100 to 1000 nM; in assay [2] (setting [5]), < 100 nM; in assay [3] it was < 100 nM.
Regarding `O=C(NC1CNC1)c1ccc(N2CCN(c3nnc(Cc4ccccc4)c4ccccc34)CC2)nc1` [Example 54y], the IC50 in assay [1], in assay [2] (setting [4]), in assay [2] (setting [5]) and in assay [3] was 1000 to 10000 nM each time.
`CCOC(=O)c1ccc(N2CCN(c3nnc(Cc4ccc(F)cc4)c4ccccc34)CC2)nc1` [Example 183]: the IC50 was < 100 nM in assay [1], 1000 to 10000 nM in assay [2] (setting [4]), 100 to 1000 nM in assay [2] (setting [5]) and < 100 nM in assay [3].
Consider `c1ccc(Cc2nnc(N3CCN(c4ccccc4)CC3)c3ccccc23)cc1` [Example 106], for which the IC50 lay in the range of 1000 to 10000 nM in assay [1], 1000 to 10000 nM in assay [2] (setting [4]), 100 to 1000 nM in assay [2] (setting [5]) and 1000 to 10000 nM in assay [3].
Turning to `N#Cc1ccc(N2CCN(c3nnc(Cc4ccc(F)cc4)c4ccccc34)CC2)nc1` [Example 181], the IC50 in assay [1] was 100 to 1000 nM; in assay [2] (setting [4]), 100 to 1000 nM; in assay [2] (setting [5]), < 100 nM; in assay [3], < 100 nM.
For `N#Cc1ccc(N2CCN(c3nnc(Cc4cccc(Br)c4)c4ccccc34)CC2)nc1` [Example 67], the IC50 was 100 to 1000 nM in assay [1], 100 to 1000 nM in assay [2] (setting [4]), 100 to 1000 nM in assay [2] (setting [5]) and < 100 nM in assay [3].
As to `FC(F)(F)c1c[nH]c(C2CCN(c3nnc(Cc4ccccc4)c4ccccc34)CC2)n1` [Example 112], the IC50 in assay [1] was 100 to 1000 nM; in assay [2] (setting [4]), 100 to 1000 nM; in assay [2] (setting [5]), < 100 nM; in assay [3] it was < 100 nM.
For the compound `Cc1ccccc1Cc1nnc(N2CCN(c3ccc(C(C)(C)O)cn3)CC2)c2ccccc12` [Example 194], the IC50 in assay [1] was < 100 nM; in assay [2] (setting [4]), 100 to 1000 nM; in assay [2] (setting [5]), < 100 nM; in assay [3] it was < 100 nM.
Turning to `CC(C)(O)c1ccc(N2CCN(c3nnc(Cc4ccc(F)cc4)c4ccccc34)CC2)nc1` [Example 191, 2-(6-{4-[4-(4-Fluoro-benzyl)-phthalazin-1-yl]-piperazin-1-yl}-pyridin-3-yl)-propan-2-ol], the IC50 in assay [1], in assay [2] (setting [4]), in assay [2] (setting [5]) and in assay [3] was < 100 nM throughout.
Take `O=C(c1ccc(N2CCN(c3nnc(Cc4ccccc4)c4ccccc34)CC2)nc1)N1CCOCC1` [Example 54k]: the IC50 was 100 to 1000 nM in assay [1], 100 to 1000 nM in assay [2] (setting [4]), < 100 nM in assay [2] (setting [5]) and < 100 nM in assay [3].
With `COc1ccc(CN2Cc3c(Cc4ccccc4)nnc(N4CCN(c5ccc(C(F)(F)F)cn5)CC4)c3C2)cc1` [Example 243, 1-benzyl-6-(4-methoxybenzyl)-4-(4-(5-(trifluoromethyl)pyridin-2-yl)piperazin-1-yl)-6,7-dihydro-5H-pyrrolo[3,4-d]pyridazine], the half-inhibitory concentration (IC50) in assay [1] lay within 1000 to 10000 nM; in assay [2] (setting [4]), 1000 to 10000 nM; in assay [2] (setting [5]), 1000 to 10000 nM; in assay [3], 100 to 1000 nM.
Turning to `FC(F)(F)c1ccc(N2CCN(c3nnc(Cc4ccccc4)c4c3C=CCC4)CC2)nc1` [Example 240, 4-Benzyl-1-(4-(5-(trifluoromethyl)pyridin-2-yl)piperazin-1-yl)-5,6-dihydrophthalazine], the IC50 was < 100 nM in assay [1], 100 to 1000 nM in assay [2] (setting [4]), 100 to 1000 nM in assay [2] (setting [5]) and < 100 nM in assay [3].
As for `C[C@@H]1CN(c2nnc(Cc3ccccc3)c3ccccc23)CCN1c1ccc(C(C)(C)O)cn1` [Example 154], the IC50 in assay [1], in assay [2] (setting [4]), in assay [2] (setting [5]) and in assay [3] was < 100 nM throughout.

One may read the IC50 as the concentration that gives 50% inhibition.

The values are drawn from patent US8536168B2 (Novartis AG, priority 2007, dated 2013).
